According to PubChem BioAssay (NCI):
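Cells were grown in 96-well plates and exposed to each compound for 48 hours at five concentrations; endpoints were interpolated linearly between bracketing concentrations, or set to the highest concentration if not reached. Abbreviation: GI50, concentration required for 50% inhibition of growth. TGI is the concentration that stops growth completely.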

Assays:
Experiment in all cases: growth of human tumour cells (NCI), 48 h
KM12 colon = system: KM12 colon
K-562 leukemia = system: K-562 leukemia
NCI-H522 lung = system: NCI-H522 lung
SF-268 CNS = system: SF-268 CNS
TK-10 renal = system: TK-10 renal
COLO 205 colon = system: COLO 205 colon
SNB-75 CNS = system: SNB-75 CNS
SR leukemia = system: SR leukemia
HS 578T breast = system: HS 578T breast
UO-31 renal = system: UO-31 renal
CAKI-1 renal = system: CAKI-1 renal
SK-OV-3 ovarian = system: SK-OV-3 ovarian
DU-145 prostate = system: DU-145 prostate
MOLT-4 leukemia = system: MOLT-4 leukemia
A549 NSCLC = system: A549 NSCLC
OVCAR-4 ovarian = system: OVCAR-4 ovarian
U251 CNS = system: U251 CNS
EKVX NSCLC = system: EKVX NSCLC
HCT-15 colon = system: HCT-15 colon
SK-MEL-5 melanoma = system: SK-MEL-5 melanoma
MDA-MB-435 = system: MDA-MB-435
MDA-MB-231 breast = system: MDA-MB-231 breast
NCI-H460 lung = system: NCI-H460 lung
OVCAR-5 ovarian = system: OVCAR-5 ovarian
SF-295 CNS = system: SF-295 CNS
RXF 393 renal = system: RXF 393 renal
ACHN renal = system: ACHN renal
SN12C renal = system: SN12C renal
SW-620 colon = system: SW-620 colon

CC(=O)OC[C@@]12Oc3c(cccc3-c3ccc(O)c4c3O[C@]3(COC(C)=O)C(=C4O)C(=O)C[C@H](C)[C@@H]3OC(C)=O)C(O)=C1C(=O)C[C@H](C)[C@@H]2OC(C)=O
GI50 (KM12 colon): 27.5 µM | TGI (KM12 colon): > 100 µM | GI50 (K-562 leukemia): 30.5 µM | TGI (K-562 leukemia): > 100 µM | GI50 (NCI-H522 lung): 7.97 µM | TGI (NCI-H522 lung): 46.4 µM | GI50 (SF-268 CNS): 4.32 µM | TGI (SF-268 CNS): > 100 µM | GI50 (TK-10 renal): 29.9 µM | TGI (TK-10 renal): > 100 µM | GI50 (COLO 205 colon): 19.7 µM | TGI (COLO 205 colon): 48.9 µM | GI50 (SNB-75 CNS): 2.53 µM | TGI (SNB-75 CNS): 42.8 µM | GI50 (SR leukemia): 3.68 µM | TGI (SR leukemia): > 100 µM | GI50 (HS 578T breast): 3.77 µM | TGI (HS 578T breast): > 100 µM | GI50 (UO-31 renal): 23.9 µM | TGI (UO-31 renal): > 100 µM | GI50 (CAKI-1 renal): 28.6 µM | TGI (CAKI-1 renal): > 100 µM | GI50 (SK-OV-3 ovarian): 25.5 µM | TGI (SK-OV-3 ovarian): 88.6 µM | GI50 (DU-145 prostate): 10.8 µM | TGI (DU-145 prostate): > 100 µM | GI50 (MOLT-4 leukemia): 10.9 µM | TGI (MOLT-4 leukemia): > 100 µM | GI50 (A549 NSCLC): 4.06 µM | TGI (A549 NSCLC): > 100 µM | GI50 (OVCAR-4 ovarian): 29.4 µM | TGI (OVCAR-4 ovarian): > 100 µM | GI50 (U251 CNS): 4.08 µM | TGI (U251 CNS): > 100 µM | GI50 (EKVX NSCLC): 24.3 µM | TGI (EKVX NSCLC): > 100 µM | GI50 (HCT-15 colon): 5.45 µM | TGI (HCT-15 colon): > 100 µM | GI50 (SK-MEL-5 melanoma): 4.76 µM | TGI (SK-MEL-5 melanoma): 16.9 µM | GI50 (MDA-MB-435): 5.3 µM | TGI (MDA-MB-435): > 100 µM | GI50 (MDA-MB-231 breast): 25.5 µM | TGI (MDA-MB-231 breast): > 100 µM | GI50 (NCI-H460 lung): 4.83 µM | TGI (NCI-H460 lung): > 100 µM | GI50 (OVCAR-5 ovarian): 29.3 µM | TGI (OVCAR-5 ovarian): > 100 µM | GI50 (SF-295 CNS): 6.92 µM | TGI (SF-295 CNS): 80.8 µM | GI50 (RXF 393 renal): 9.39 µM | TGI (RXF 393 renal): 50.5 µM | GI50 (ACHN renal): 30.3 µM | TGI (ACHN renal): > 100 µM | GI50 (SN12C renal): 6.98 µM | TGI (SN12C renal): > 100 µM | GI50 (SW-620 colon): 33.2 µM
